The text below walks through data of ChEMBL document CHEMBL5442219.

Details in all cases: Compound concentration 10 µM
In test [1] the target is T1, Muscarinic acetylcholine receptor M2 (Homo sapiens) (UniProt P08172).
T1 sequence (whole entry): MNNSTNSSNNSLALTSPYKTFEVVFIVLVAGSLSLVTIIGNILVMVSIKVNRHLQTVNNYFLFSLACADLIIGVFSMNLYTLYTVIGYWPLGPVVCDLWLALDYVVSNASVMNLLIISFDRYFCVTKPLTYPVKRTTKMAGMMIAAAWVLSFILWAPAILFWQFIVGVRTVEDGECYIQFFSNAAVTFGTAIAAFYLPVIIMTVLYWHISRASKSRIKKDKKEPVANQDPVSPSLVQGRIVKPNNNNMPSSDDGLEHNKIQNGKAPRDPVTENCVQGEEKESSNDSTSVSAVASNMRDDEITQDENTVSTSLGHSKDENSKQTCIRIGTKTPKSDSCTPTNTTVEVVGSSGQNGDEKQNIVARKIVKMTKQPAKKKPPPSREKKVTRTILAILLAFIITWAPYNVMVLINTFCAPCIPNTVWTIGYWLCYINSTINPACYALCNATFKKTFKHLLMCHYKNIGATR
Description: PDSP Primary Binding target: CHRM2 - Compounds are tested at 10 uM concentration, plate are incubated at room temperature in the dark for 90 minutes. Reaction are stopped by vacuum filtration onto 0.3% polyethyleneimine soaked filter mats using Filtermate harvester. Scintilation cocktail is then melted onto microwave-dried filters on a hot plate and the radio activity is counted in Microbia counter.

In test [2] the target is 5-hydroxytryptamine receptor 5A (Homo sapiens) (UniProt P47898).
Sequence of 5-hydroxytryptamine receptor 5A (Homo sapiens) (P47898 whole entry): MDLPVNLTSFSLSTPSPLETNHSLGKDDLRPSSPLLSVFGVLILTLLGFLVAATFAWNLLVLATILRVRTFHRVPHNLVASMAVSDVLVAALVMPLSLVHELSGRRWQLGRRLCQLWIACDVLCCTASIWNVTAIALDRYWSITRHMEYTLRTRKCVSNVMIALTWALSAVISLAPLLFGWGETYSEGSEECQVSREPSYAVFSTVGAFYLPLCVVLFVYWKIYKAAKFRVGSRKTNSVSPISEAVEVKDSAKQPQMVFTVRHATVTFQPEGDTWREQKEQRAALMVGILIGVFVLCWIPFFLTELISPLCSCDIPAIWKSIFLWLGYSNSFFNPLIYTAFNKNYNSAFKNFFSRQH
Description: PDSP Primary Binding target: HTR5A - Compounds are tested at 10 uM concentration, plate are incubated at room temperature in the dark for 90 minutes. Reaction are stopped by vacuum filtration onto 0.3% polyethyleneimine soaked filter mats using Filtermate harvester. Scintilation cocktail is then melted onto microwave-dried filters on a hot plate and the radio activity is counted in Microbia counter.
For test [3], the target named is T2, Alpha-1A adrenergic receptor (Homo sapiens) (UniProt P35348).
T2 sequence (whole entry): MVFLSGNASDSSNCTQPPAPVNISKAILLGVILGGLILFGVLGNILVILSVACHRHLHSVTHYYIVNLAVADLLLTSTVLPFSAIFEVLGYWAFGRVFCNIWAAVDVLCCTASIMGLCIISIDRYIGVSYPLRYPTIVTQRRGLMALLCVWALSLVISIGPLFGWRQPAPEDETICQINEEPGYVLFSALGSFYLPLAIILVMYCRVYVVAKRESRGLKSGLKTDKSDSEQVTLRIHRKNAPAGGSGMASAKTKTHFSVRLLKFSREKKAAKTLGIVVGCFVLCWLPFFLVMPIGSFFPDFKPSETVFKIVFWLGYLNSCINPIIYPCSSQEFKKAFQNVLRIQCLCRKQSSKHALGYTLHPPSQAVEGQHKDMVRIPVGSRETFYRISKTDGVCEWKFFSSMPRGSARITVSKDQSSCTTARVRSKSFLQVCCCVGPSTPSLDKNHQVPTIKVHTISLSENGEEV
Description: PDSP Primary Binding target: ADRA1A - Compounds are tested at 10 uM concentration, plate are incubated at room temperature in the dark for 90 minutes. Reaction are stopped by vacuum filtration onto 0.3% polyethyleneimine soaked filter mats using Filtermate harvester. Scintilation cocktail is then melted onto microwave-dried filters on a hot plate and the radio activity is counted in Microbia counter.

The target in test [4] is Histamine H1 receptor (Homo sapiens) (UniProt P35367).
Sequence of Histamine H1 receptor (Homo sapiens) (P35367 whole entry): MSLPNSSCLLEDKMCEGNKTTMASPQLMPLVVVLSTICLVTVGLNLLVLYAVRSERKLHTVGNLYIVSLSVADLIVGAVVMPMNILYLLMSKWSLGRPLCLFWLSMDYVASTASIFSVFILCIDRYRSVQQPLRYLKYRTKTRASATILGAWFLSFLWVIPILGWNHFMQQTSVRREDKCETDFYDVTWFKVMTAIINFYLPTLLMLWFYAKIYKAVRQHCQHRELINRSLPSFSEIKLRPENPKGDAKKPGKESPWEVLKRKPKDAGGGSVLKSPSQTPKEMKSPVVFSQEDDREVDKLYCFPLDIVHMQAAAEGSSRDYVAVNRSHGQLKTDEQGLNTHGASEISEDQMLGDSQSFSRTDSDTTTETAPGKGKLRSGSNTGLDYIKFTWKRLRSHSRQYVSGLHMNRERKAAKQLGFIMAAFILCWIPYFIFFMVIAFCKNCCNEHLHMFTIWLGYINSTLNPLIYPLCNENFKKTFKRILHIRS
Description: PDSP Primary Binding target: HRH1 - Compounds are tested at 10 uM concentration, plate are incubated at room temperature in the dark for 90 minutes. Reaction are stopped by vacuum filtration onto 0.3% polyethyleneimine soaked filter mats using Filtermate harvester. Scintilation cocktail is then melted onto microwave-dried filters on a hot plate and the radio activity is counted in Microbia counter.
The target of test [5] is T3, Muscarinic acetylcholine receptor M4 (Homo sapiens) (UniProt P08173).
T3 sequence (whole entry): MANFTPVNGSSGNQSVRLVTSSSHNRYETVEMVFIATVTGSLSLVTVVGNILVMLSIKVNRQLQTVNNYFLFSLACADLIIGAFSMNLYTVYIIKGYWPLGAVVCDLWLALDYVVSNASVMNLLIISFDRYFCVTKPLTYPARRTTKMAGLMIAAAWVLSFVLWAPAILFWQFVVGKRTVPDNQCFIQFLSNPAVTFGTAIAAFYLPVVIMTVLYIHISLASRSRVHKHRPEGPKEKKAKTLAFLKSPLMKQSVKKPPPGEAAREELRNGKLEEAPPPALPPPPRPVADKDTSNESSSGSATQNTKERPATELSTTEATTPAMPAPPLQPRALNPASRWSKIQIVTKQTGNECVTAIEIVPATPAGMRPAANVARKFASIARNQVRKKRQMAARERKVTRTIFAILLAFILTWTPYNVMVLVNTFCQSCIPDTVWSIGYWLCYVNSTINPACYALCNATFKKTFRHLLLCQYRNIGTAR
Description: PDSP Primary Binding target: CHRM4 - Compounds are tested at 10 uM concentration, plate are incubated at room temperature in the dark for 90 minutes. Reaction are stopped by vacuum filtration onto 0.3% polyethyleneimine soaked filter mats using Filtermate harvester. Scintilation cocktail is then melted onto microwave-dried filters on a hot plate and the radio activity is counted in Microbia counter.

Test [6] deals with T4, Alpha-1B adrenergic receptor (Homo sapiens) (UniProt P35368).
T4 sequence (whole entry): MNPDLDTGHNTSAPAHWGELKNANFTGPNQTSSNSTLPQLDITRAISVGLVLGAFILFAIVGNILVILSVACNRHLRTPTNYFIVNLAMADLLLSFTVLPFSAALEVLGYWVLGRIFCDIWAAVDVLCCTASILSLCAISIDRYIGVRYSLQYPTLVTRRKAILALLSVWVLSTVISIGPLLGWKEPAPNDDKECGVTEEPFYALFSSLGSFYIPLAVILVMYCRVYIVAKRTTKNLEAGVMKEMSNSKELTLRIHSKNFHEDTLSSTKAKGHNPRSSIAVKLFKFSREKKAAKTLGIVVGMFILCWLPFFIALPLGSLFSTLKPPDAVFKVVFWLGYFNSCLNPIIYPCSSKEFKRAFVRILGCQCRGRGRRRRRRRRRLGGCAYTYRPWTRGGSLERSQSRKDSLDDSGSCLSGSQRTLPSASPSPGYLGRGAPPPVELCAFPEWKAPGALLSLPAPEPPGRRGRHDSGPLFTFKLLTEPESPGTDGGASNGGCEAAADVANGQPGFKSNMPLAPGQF
Description: PDSP Primary Binding target: ADRA1B - Compounds are tested at 10 uM concentration, plate are incubated at room temperature in the dark for 90 minutes. Reaction are stopped by vacuum filtration onto 0.3% polyethyleneimine soaked filter mats using Filtermate harvester. Scintilation cocktail is then melted onto microwave-dried filters on a hot plate and the radio activity is counted in Microbia counter.

For test [7], the target named is Delta-type opioid receptor (Homo sapiens) (UniProt P41143).
Sequence of Delta-type opioid receptor (Homo sapiens) (P41143 whole entry): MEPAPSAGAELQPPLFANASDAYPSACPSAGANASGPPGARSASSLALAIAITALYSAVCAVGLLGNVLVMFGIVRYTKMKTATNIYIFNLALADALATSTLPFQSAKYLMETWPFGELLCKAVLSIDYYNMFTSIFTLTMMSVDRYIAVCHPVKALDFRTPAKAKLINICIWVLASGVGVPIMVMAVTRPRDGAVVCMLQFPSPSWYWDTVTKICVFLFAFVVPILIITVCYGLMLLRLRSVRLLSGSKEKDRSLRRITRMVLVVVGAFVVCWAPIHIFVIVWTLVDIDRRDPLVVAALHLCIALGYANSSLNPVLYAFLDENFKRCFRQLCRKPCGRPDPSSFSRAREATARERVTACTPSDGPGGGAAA
Description: PDSP Primary Binding target: OPRD1 - Compounds are tested at 10 uM concentration, plate are incubated at room temperature in the dark for 90 minutes. Reaction are stopped by vacuum filtration onto 0.3% polyethyleneimine soaked filter mats using Filtermate harvester. Scintilation cocktail is then melted onto microwave-dried filters on a hot plate and the radio activity is counted in Microbia counter.
Test [8] addresses T5, Alpha-1D adrenergic receptor (Homo sapiens) (UniProt P25100).
T5 sequence (whole entry): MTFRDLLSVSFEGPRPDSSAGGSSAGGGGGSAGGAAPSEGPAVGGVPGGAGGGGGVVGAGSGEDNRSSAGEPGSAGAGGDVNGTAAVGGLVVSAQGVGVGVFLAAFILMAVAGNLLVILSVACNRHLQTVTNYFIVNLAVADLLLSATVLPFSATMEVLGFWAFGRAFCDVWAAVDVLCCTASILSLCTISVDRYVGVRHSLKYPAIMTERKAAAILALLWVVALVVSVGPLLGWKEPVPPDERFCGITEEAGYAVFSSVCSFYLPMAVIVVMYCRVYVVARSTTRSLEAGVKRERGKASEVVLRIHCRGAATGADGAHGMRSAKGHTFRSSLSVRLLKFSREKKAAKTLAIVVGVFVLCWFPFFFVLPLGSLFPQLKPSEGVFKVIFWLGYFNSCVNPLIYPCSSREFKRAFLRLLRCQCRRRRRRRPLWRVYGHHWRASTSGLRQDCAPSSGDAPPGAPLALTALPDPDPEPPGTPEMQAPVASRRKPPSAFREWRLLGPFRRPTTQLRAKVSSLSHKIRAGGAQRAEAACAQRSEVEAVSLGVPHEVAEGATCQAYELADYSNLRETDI
Description: PDSP Primary Binding target: ADRA1D - Compounds are tested at 10 uM concentration, plate are incubated at room temperature in the dark for 90 minutes. Reaction are stopped by vacuum filtration onto 0.3% polyethyleneimine soaked filter mats using Filtermate harvester. Scintilation cocktail is then melted onto microwave-dried filters on a hot plate and the radio activity is counted in Microbia counter.

The inhibition is the drop in the measured response relative to a control, in per cent.

Turning to `N#Cc1cccc(C(=O)Nc2cc(-c3ccccc3)nn2-c2ccccc2)c1`, the inhibition in test [1] is 20.9%; in test [2], 1.34%; in test [3], 4.85%; in test [4] it was -6.18%; in test [5] it was -7.29%; in test [6], -3.29%.
`COc1cccc([C@H](O)C2CCN(CCc3ccc(F)cc3)CC2)c1OC`: the inhibition in test [1] was 1.5%; in test [2], 16.8%; in test [3], 31.6%; in test [4], 92.9%; in test [6], 57.3%; in test [7], 4.4%. For the same molecule, the inhibition in test [8] was 34.5%.
For `CN1C2CCC1CC(OC(c1ccc(F)cc1)c1ccc(F)cc1)C2` (stereo unspecified), the inhibition in test [1] was 111%; in test [2], 83.1%; in test [3], 98.7%; in test [5], 95.6%; in test [6], 96.5%; in test [8] it was 91.5%.
For `CCCSc1nc(N[C@@H]2C[C@H]2c2ccc(F)c(F)c2)c2nnn([C@@H]3C[C@H](OCCO)[C@@H](O)[C@H]3O)c2n1`, the inhibition in test [1] is -1.83%; in test [2], 33.2%; in test [3], 11.7%; in test [4], 16.1%; in test [5], -3.79%; in test [7], 17.9%. Moreover, the inhibition in test [8] was 11.3%.
Turning to `C[C@H](Cc1cc2c(c(C(N)=O)c1)N(CCCO)CC2)NCCOc1ccccc1OCC(F)(F)F`, the inhibition in test [1] is -1.87%; in test [2], 25.3%; in test [3], 90.7%; in test [4] it was 62.9%; in test [5], -8.65%; in test [6], 81.6%. Moreover, the inhibition in test [8] is 86.5%.
Consider `Cc1cc(C(=O)N2Cc3cnn(C)c3Nc3ccccc32)ccc1CNC(=O)N1CCC[C@H]1C(=S)N1CCCN(C)CC1`, for which the inhibition in test [1] is 68.4%; in test [2] it was 35%; in test [3] it was -5.86%; in test [4], 24.4%; in test [5] it was 63%; in test [6] it was -2.71%.
As to `CCCCc1nc(Cl)c(CO)n1Cc1ccc(-c2ccccc2-c2nnn[nH]2)cc1`, the inhibition in test [1] was -0.57%; in test [2], 16.9%; in test [3], -0.59%; in test [5], -5.3%; in test [6], -2.24%; in test [7] it was 19.2%. For the same molecule, the inhibition in test [8] was 13.1%.
For `C[C@@H](NCCCc1cccc(C(F)(F)F)c1)c1cccc2ccccc12`, the inhibition is 42% in test [1]; 81.9% in test [2]; 38.5% in test [3]; 12.7% in test [4]; -2.86% in test [5]; 53.8% in test [6]. Besides, in test [8], the inhibition was 28.2%.
For the molecule `CC[C@@H]1CN2C(=O)N(C)c3nc(-c4ccccc4)[nH]c3C2=N1`, the inhibition in test [1] is -8.11%; in test [2], 14.4%; in test [3], 4.28%; in test [4] it was 27.4%; in test [6] it was -5.35%; in test [7] it was -7.99%.
For `COc1ccc(S(=O)(=O)N2c3ccc(Cl)cc3[C@](O)(c3ccccc3Cl)[C@@H]2C(=O)N2CCC[C@H]2C(N)=O)cc1OC`, the inhibition in test [1] is 29.5%; in test [2], -7.91%; in test [3] it was -4.04%; in test [4] it was 5.97%; in test [6], 2.62%; in test [7], 19%. Moreover, the inhibition in test [8] is 10.8%.
For the molecule `COc1ccc(/C=C/CCCCOc2ccc(C(=O)c3cccc(C(=O)O)c3)cc2CCC(=O)O)cc1`, the inhibition in test [1] was 7.46%; in test [2] it was -8.69%; in test [3] it was 11.7%; in test [4] it was 18.1%; in test [6] it was -5.5%; in test [7], 46.8%. The inhibition in test [8] was 1.82%.
Regarding `C[C@@H](N)Cc1c[nH]cn1`, the inhibition in test [1] was -5.01%; in test [2], -3.48%; in test [3], 8.76%; in test [4] it was 8.33%.
`CCCCCCCCCCCCCCCCOC[C@H](COP(=O)([O-])OCC[N+](C)(C)C)OC(C)=O`: the inhibition in test [1] is -4.25%; in test [2] it was 17.5%; in test [3] it was 34.5%; in test [5], -0.21%; in test [6], 71.6%; in test [7], 43.7%. Further, the inhibition in test [8] was 50.7%.
Regarding `COc1ccc(OC(F)(F)F)cc1CN[C@H]1CCCN[C@H]1c1ccccc1`, the inhibition was 12.9% in test [1]; 24.8% in test [2]; 31.1% in test [3]; 92.9% in test [4]; -2.31% in test [5]; 2.37% in test [6]. Further, the inhibition in test [8] is 15.1%.
`c1ccc(N2CCN(Cc3nc4ccccc4[nH]3)CC2)nc1`: the inhibition in test [1] is -8.11%; in test [2], 11.8%; in test [3], 6.23%; in test [4], 15.6%; in test [5], -4.29%; in test [7], -5.06%.
As for `C[C@@H](NCCc1ccc(O)cc1)[C@@H](O)c1ccc(O)cc1` (relative stereo), the inhibition in test [1] is 3.91%; in test [3], 7.01%; in test [4], 24.2%; in test [5], 33%; in test [6], 21.4%; in test [7], 17.5%. The inhibition in test [8] was 0.11%.
On to `O=C(Cc1ccccc1)Nc1nc2ccc(Cl)cc2c2nc(-c3ccco3)nn12`, for which the inhibition was -4.43% in test [1]; 15.2% in test [2]; 10.4% in test [3]; 29.1% in test [4]; -5.46% in test [5]; -7.34% in test [6]. The inhibition in test [8] is -5.53%.
